One experiment concerns the target 5-HT₁. Put plainly: Receptor binding assay, ³H-5-HT. The conditions noted are these: ³H-5-HT (5 nM) binding, rat brain (striatal) membranes, 10 minutes at 37°C; read-out: IC₅₀. As to the method:
(§1) The method of Peroulka & Snyder (Mol.Pharmacol. 16, 687-699, 1979) was used. Male Sprague-Dawley rats weighing 150-200 g were decapitated, and their brains were rapidly removed. The striata were dissected, pooled and homogenized in 50 mM Tris-HCl buffer (pH 7.6). The membrane fraction was collected by centrifugation (48 000 g for ten minutes), washed once with the buffer, and resuspended in 50 mM Tris HCl (pH 7.6) containing 0.1% ascorbic acid, 10 mM paragyline, 120 mM NaCl, 5 mM KCl, 2 mM CaCl₂ and 1 mM MgCl₂. The suspension was preincubated at 37°C for 10 minutes and then kept on ice until use.
(§2) The assays have been carried out using a cell harvester equipment. The incubations were made in quadruplicate, each well containing membrane suspension, ³H-spiperone (0.4 nM) or ³H-5-HT (5 nM) and the test compound in a final volume of 0.5 ml. After incubation for 10 minutes at 37°C, the contents of the wells were rapidly filtered and washed on Whatman GF/B filters using the Cell harvester. The specific binding was defined as the difference of radioligand bound in the presence and in the absence of a specific displacer (d-LSD, lµM and 5-HT, 10 µM for ³4-spiperone and ³H-5-HT, respectively). The test results are expressed as IC₅₀. The IC₅₀ value is given in nM, indicates the concentration of the test substance which reduces the amount of specifically bound radioligand by 50%..

Another experiment has as its target T1, 5-HT₂ (Rattus norvegicus, UniProt P14842).
T1 construct: from tissue
The experiment is described as follows: Receptor binding assay, ³H-Ketanserin. The conditions noted are these: ³H-Ketanserin binding, rat brain membranes.

For the next experiment, the target named is T2, Dopamine-D₂ (Rattus norvegicus, UniProt P61169).
T2 construct: The striata were dissected, pooled and homogenized in 50 mM Tris-HCl buffer (pH 7.6); from tissue; host or cells: rat striatum membrane fraction
T2 sequence (P61169 whole entry): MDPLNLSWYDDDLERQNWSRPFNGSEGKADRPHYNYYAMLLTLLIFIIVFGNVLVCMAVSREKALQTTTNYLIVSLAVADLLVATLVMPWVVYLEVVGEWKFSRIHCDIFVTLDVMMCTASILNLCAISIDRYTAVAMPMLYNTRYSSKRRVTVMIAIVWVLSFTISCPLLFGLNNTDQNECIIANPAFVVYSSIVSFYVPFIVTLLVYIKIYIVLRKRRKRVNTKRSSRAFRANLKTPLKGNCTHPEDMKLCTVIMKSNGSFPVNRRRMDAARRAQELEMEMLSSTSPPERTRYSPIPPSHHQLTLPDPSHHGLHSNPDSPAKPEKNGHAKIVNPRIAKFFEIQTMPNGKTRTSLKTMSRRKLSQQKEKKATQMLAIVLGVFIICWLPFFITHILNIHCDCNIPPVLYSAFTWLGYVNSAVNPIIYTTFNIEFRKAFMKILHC
Put plainly: Receptor binding assay, ³H-spiroperidol. The conditions noted are these: ³H-spiroperidol binding, rat brain membranes. As to the method: as §1, §2

T1 sequence (P14842 whole entry): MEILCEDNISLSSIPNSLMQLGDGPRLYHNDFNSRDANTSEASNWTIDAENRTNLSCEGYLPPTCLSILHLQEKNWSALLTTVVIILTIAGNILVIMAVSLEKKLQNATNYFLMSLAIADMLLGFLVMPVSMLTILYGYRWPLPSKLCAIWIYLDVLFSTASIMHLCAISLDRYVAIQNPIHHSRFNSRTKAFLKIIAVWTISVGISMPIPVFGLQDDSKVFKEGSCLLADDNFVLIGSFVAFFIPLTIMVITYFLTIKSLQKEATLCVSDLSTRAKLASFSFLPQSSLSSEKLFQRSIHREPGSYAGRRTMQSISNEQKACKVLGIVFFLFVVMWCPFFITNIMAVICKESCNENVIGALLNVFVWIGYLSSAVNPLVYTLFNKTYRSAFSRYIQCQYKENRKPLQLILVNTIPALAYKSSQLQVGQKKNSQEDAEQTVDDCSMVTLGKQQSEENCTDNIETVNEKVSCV

As for `CCCN(CCC)C1COc2cccc(O)c2C1` (stereo not drawn) [3-di-propylamino-5-hydroxychroman, 3-dipropylamino-5-hydroxychroman], the IC50 on 5-HT₁ came out at 0.083 µM. For the same compound, at 5-HT₂, the “activity in ³H-Ketanserin (5-HT₂) receptor binding” value was “inactive”. Further, the “activity in ³H-spiroperidol (Dopamine-D₂) receptor binding” value on Dopamine-D₂ is “inactive”.

The values above are taken from patent EP0279150A1, “5-Oxy-substituted-3-aminochroman compounds, processes for their preparation, pharmaceutical compositions containing them and methods of treatment therewith” (ASTRA LAKEMEDEL AKTIEBOLAG, priority 1986, dated 1988).
